Reference: US7662361B2, “Methods and compositions for modulating drug activity through telomere damage” (priority 1999, dated 2010)

What was measured:
telomere length = test: TALA telomere length, paclitaxel and AZT alone or in combination; assay type: cell-based, human
From the text: The effect of paclitaxel and AZT, alone or in combination, on telomere length was studied using TALA.

[1] = tested on: telomerase activity of FaDu cells; test: TRAP telomerase activity in drug-treated cells; assay type: cell-based, human; settings: 200 nM paclitaxel
Method: For the preparation of cell and tissue extracts, cells and tissue were harvested, washed, and stored at −70° C. Cells were then lysed in a SDS-based lysis buffer (10 mM Tris.HCl, pH 7.5, 1 mM MgCl2, 1 mM EGTA, 0.1 mM phenylmethylsulfonyl fluoride, 5 mM β-mercaptoethanol, 0.1% CHAPS, and 10% glycerol), on ice for 10 min. To this mixture, three volumes of CHAPS-based buffer (10 mM Tris-HCl, pH 7.5, 1 mM MgCl2, 1 mM EGTA, 0.1 mM phenylmethylsulfonyl fluoride, 5 mM β-mercaptoethanol, 0.5% CHAPS, and 10% glycerol) were added and kept on ice for 5 min. […] For the extraction of tissues, tissues were homogenized in SDS-based lysis buffer with a Kontes pellet pestle (Fisher, Pittsburgh, Pa.), mixed with three volumes of CHAPS-based buffer, and centrifuged were centrifuged at 8,000 g for 15 min at 4° C. The supernatant was kept at −20° C. The protein concentration of the supernatant was determined using Bicinchoninic Acid Kit (Sigma, St Louis, Mo.). The protein concentration was adjusted to 0.5 μg/μl with CHAPS-based buffer. Samples with equal amounts of protein (1-2 μg) were analyzed by TRAP. […] The TRAP reaction mixture contained 2-4 μl of protein extract, 20 mM Tris.HCl (pH 8.3), 1.5 mM MgCl2, 63 mM KCl, 0.005% Tween-20, 1 mM EGTA, 50 μM dNTPs, 0.1 μg of TS primer, 0.1 mg/ml bovine serum albumin. The mixture was incubated at 30° C. for 30 min, then at 90° C. for 2 min.
This was accomplished by using phenol/chloroform extraction of the cell lysate, as follows. One μg of tRNA and 0.1 ng internal control template were added to the reaction solution after primer extension. The total volume of the mixture was brought to 100 μl with water, mixed with an equal volume of buffer saturated phenol (Life Technology) and then centrifuged at 18,000 g for 3 min, at room temperature. The top aqueous layer (90 μl) was carefully transferred to a new tube and mixed with an equal volume of chloroform:isoamyl alcohol (24:1) solution and centrifuged at 18,000 g for 3 min, at room temperature. The top aqueous layer (80 μl) was again transferred to a new tube and the nucleotides were precipitated with 0.2 volume of 3 M sodium acetate (pH 5.3) and 3 volume of 100% ethanol at −70° C. for at least 2 hr. The mixture was centrifuged at 18,000 g for 15 min at 4° C. […]
(§1) The template for the internal standard was amplified by PCR and purified by spin columns (QIAquick PCR purification kit, Qiagen, Valencia, Calif.). The concentration was determined by a spectrophotometer.
PCR was performed on the GeneAmp PCR system 2400 (Perkin Elmer) and initiated by 1 cycle at 94° C. for 3 min, 50° C. for 4 min, and 68° C. for 2 min, then 25 rounds at 94° C. for 30 sec, 50° C. for 30 sec, and 68° C. for 90 sec, followed by 68° C. for 10 min. […] The gel was then dried and the amplification products were detected. […]

PC3 cells = test: Time course of apoptotic changes (caspase 3, PARP cleavage, DNA fragmentation, DNA-histone release); assay type: cell-based, human; settings: 20 nM paclitaxel
Method: Caspase Activity. The activity of Caspase 3 was measured using the ApoAlert CPP32 assay (Clontech Laboratories, Palo Alto, Calif.). Briefly, 1×10^6 cells were lysed using the lysis buffer provided in the assay kit. The lysate was stored at −20° C. and analyzed within 1 week. Enzyme activity was detected by the cleavage of the substrate, Asp-Glu-Val-Asp-7-amino-4-trifluoromethyl coumarin (DEVD-AFC) to AFC, which emits a yellow-green fluorescence at 505 nm. The increase in caspase activity is measured as the ratio of the fluorescence intensity of a agent-treated sample (e.g., paclitaxel) to that of control cells collected at the same time.
PARP Cleavage. […] PARP cleavage was analyzed by immunoblotting. […] Protease inhibitors were used to minimize proteolytic cleavage of PARP during processing. […] Samples were sonicated on ice, resuspended using a 21 gauge needle, and then incubated at 75° C. for 15 min. After centrifugation, an aliquot representing 1.5×10^5 cells was loaded on a 10% SDS polyacrylamide gel and run at 30 mA overnight. The gel was transferred onto a […] nitrocellulose membrane by electroblotting. The membrane was incubated with blocking solution (5% non-fat dry milk in PBS containing 0.1% Tween 20) for 1 hr, followed by incubation with the PARP monoclonal antibody overnight at 4° C. and subsequently the anti-mouse immunoglobulin. After washing the membrane in PBS twice for 5 min each and once for 30 min, the immunoreactive bands were visualized by incubation of the membrane with the chemiluminescence immunoblot kit.
Release of DNA-Histone Complex to Cytoplasm. The level of DNA-histone mono- and oligonucleosomes in the cytoplasm was measured using the cell death detection ELISA kit. Briefly, 5000 cells were lysed in the lysis buffer. The cytoplasmic fractions of the lysates were placed in a […] precoated with mouse antihistone primary antibody and mouse anti-DNA antibody conjugated to peroxidase. The peroxidase substrate, 2,2′-azido-di-[3-ethylbenzthiazoline sulfonate], was applied and the absorbance at 405 nm was measured.
DNA Fragmentation. […] DNA was extracted twice with phenol/chloroform (1:1) and once with chloroform, and precipitated by adding 0.2 volume 10 M […] and 2 volumes ethanol. The pellet obtained after centrifugation was resuspended in 100 mM Tris-HCl and 10 mM EDTA (pH 8.0). The amount of DNA was measured by the absorbance at 260 nm, using a spectrophotometer. Samples showing a 260:280 absorbance ratio of >1.8, which ascertained the purity of the isolated DNA, were analyzed by gel electrophoresis. […] The DNA laddering pattern was visualized by UV transillumination and photographed.

FaDu cells = test: Cell detachment from the growth surface; assay type: cell-based, human; settings: 200 nM paclitaxel, end of 48-hr treatment
Method: Upon drug treatment, the supernatant along with two subsequent Versene rinses, which contained the detached cells, were collected. […] These samples were centrifuged at 1500 rpm for 10 min and the resulting cell pellets were resuspended in 2 ml of culture media. The cell number in the detached and attached fractions were counted using a Coulter counter (Coulter Electronic, Inc., Hialeah, Fla.).
Treatment with the above agents was initiated after cells were allowed to attach to the growth surface in culture flasks. On the day of experiments, the culture medium was removed and replaced with drug-containing medium. […] For d4T, two concentrations, 20 μM and 40 μM were used.
Agent effect was measured in three ways, i.e., enumeration of the number of cells that remained attached in culture flask, enumeration of the number of cells that detached from the growth surface, and by measuring changes in apoptosis. […] The drug-induced detachment of cells from the growth surface was determined by counting the attached and detached cells.

SKOV3 cells = test: FISH detection of damaged telomeres after paclitaxel treatment; assay type: cell-based, human; settings: 200 nM paclitaxel
From the text: Fluorescent in situ hybridization (FISH). Fluorescent in situ hybridization (FISH) was used to identify the presence and to estimate the approximate length of individual telomere structures at the end of chromosomes. The FISH method used was a modification of a previously published method (Multani A S et al. (1996) Anticancer Res 16: 3435-3438; Henderson S et al. (1996) J Cell Biol 134:1-12), and consists of the following three steps: (a) the cells are fixed in a manner that promotes spreading of the chromosomes, (b) a nucleotide sequence complementary to the telomere sequence is used as probe to bind to the telomeres and to provide a point of attachment for fluorescently-labeled antibodies, and (c) the fluorescent signal is identified using fluorescent microscopy.
The methods are as follows. To spread the chromosomes, the cell pellet was incubated with a hypotonic solution (75 mM KCl) at 37° C. for 20 min, washed three times and fixed with acetic acid and methanol, dropped onto slides, air-dried, and denatured in 2×SSC and 70% formamide at 74° C. for 5 min. To detect the telomeres, the cells were incubated with a digoxigenin-labeled human telomeric probe (Oncor) at 37° C. for 16 to 18 hr. The slides were washed consecutively in 2×SSC at 42° C. and 72° C., each time for 5 min. After blocking with 5% skim milk for 10 min, cells were incubated sequentially with rhodamine-labeled (red color) anti-digoxigenin, rabbit anti-sheep, and rhodamine-labeled anti-rabbit antibodies, at room temperature for 30 min. Between each step, the slides were washed three times in 130 mM phosphate buffer, pH 7.4, 0.1% Triton X-100, each time for 5 min. The chromosomes were then counterstained with 0.1 μg/ml of […] (blue color) and examined under a fluorescence microscope at 100× magnification using a triple band pass filter at 340 nm.

solid tumors = settings: Gan et al (1996); read-out: concentration that caused 50% cytotoxicity in solid tumors; cited from earlier work
[2] = tested on: telomerase activity in histocultures of FaDu xenograft tumors; test: TRAP telomerase activity in tumor histocultures; assay type: cell-based, human; settings: 1 μM paclitaxel
Method: Histocultures of solid tumors. Histocultures are cultures of tumor fragments where the three dimensional structure and the heterogeneous tissue composition are maintained. […] Tumor specimens were washed three times with culture medium for three times and dissected into about 1 mm^3 fragments under sterile conditions. The culture medium for the FaDu histocultures was MEM supplemented with 9% heat-inactivated FBS, 2 mM glutamine, 90 μg/ml gentamicin and 90 μg/ml cefotaxime sodium.
For the preparation of cell and tissue extracts, cells and tissue were harvested, washed, and stored at −70° C. […] The protein concentration of the supernatant was determined using Bicinchoninic Acid Kit (Sigma, St Louis, Mo.). […] Samples with equal amounts of protein (1-2 μg) were analyzed by TRAP. […]
as §1
PCR was performed on the GeneAmp PCR system 2400 (Perkin Elmer) and initiated by 1 cycle at 94° C. for 3 min, 50° C. for 4 min, and 68° C. for 2 min, then 25 rounds at 94° C. for 30 sec, 50° C. for 30 sec, and 68° C. for 90 sec, followed by 68° C. for 10 min. […] The gel was then dried and the amplification products were detected.

CC(=O)O[C@H]1C(=O)[C@@]2(C)[C@H]([C@H](OC(=O)c3ccccc3)[C@]3(O)C[C@H](OC(=O)[C@H](O)[C@@H](NC(=O)c4ccccc4)c4ccccc4)C(C)=C1C3(C)C)[C@]1(OC(C)=O)CO[C@@H]1C[C@@H]2O [paclitaxel]
shortening of the average telomeric length (telomere length; 200 nM paclitaxel 24 hr, combination: 10 μM AZT 24 hr pretreatment then AZT plus paclitaxel 24 hr): 13% | telomere shortening on extending treatment (telomere length; paclitaxel 36 hr): did not produce a greater telomere shortening | peak telomerase activity ([1]; 3 hr): ~180 % of control value | telomerase activity ([1]; 24 hr): returning to the baseline level | telomerase activity ([1]; 48 hr): 50 % of the control values | caspase activation, time of occurrence (PC3 cells; attached cells): 24 h | PARP cleavage completed (PC3 cells; detached cells): < 72 h | PARP cleavage first detected (PC3 cells; detached cells): 24 h | caspase activation first detected (PC3 cells; detached cells): 12 h | caspase activation peak (PC3 cells; detached cells): 36 h | internucleosomal DNA fragmentation and release of DNA-histone complex first detected (PC3 cells; detached cells): 24 h | detached cell fraction (FaDu cells): about 40% | attached cells showing damaged telomeres (SKOV3 cells; 1 and 12 hr): < 5% | detached cells showing damaged telomeres (SKOV3 cells; 1 hr): 40% | detached cells showing damaged telomeres (SKOV3 cells; 12 hr): 90% | treatment time after which shortening or deletion of telomeres was detectable (SKOV3 cells; FaDu and SKOV3): 1 h | IC50 (solid tumors): 1 µM | time of peak telomerase activity [2]: 12 h | telomerase activity ([2]; 96 hr): about 50 % of the baseline level
